O=C1CCC(c2ccc(Cl)c(Cl)c2)c2ccccc21 (configuration not stated)
solubility (mole fraction) (in DMF, 278.16 K): 0.0335 | solubility (mole fraction) (in DMF, 283.37 K): 0.0408 | solubility (mole fraction) (in DMF, 288.12 K): 0.0487 | solubility (mole fraction) (in DMF, 293.13 K): 0.059 | solubility (mole fraction) (in DMF, 298.17 K): 0.0717 | solubility (mole fraction) (in DMF, 303.28 K): 0.0881 | solubility (mole fraction) (in DMF, 308.28 K): 0.106 | solubility (mole fraction) (in DMF, 313.32 K): 0.129 | solubility (mole fraction) (in DMF, 318.27 K): 0.155 | solubility (mole fraction) (in THF, 278.04 K): 0.0699 | solubility (mole fraction) (in THF, 282.93 K): 0.0823 | solubility (mole fraction) (in THF, 288.33 K): 0.096 | solubility (mole fraction) (in THF, 293.28 K): 0.109 | solubility (mole fraction) (in THF, 298.24 K): 0.124 | solubility (mole fraction) (in THF, 302.94 K): 0.14 | solubility (mole fraction) (in THF, 308.34 K): 0.162 | solubility (mole fraction) (in THF, 313.52 K): 0.187 | solubility (mole fraction) (in acetone, 282.13 K): 0.0162 | solubility (mole fraction) (in acetone, 288.02 K): 0.0217 | solubility (mole fraction) (in acetone, 292.83 K): 0.0261 | solubility (mole fraction) (in acetone, 298.28 K): 0.0321 | solubility (mole fraction) (in acetone, 303.23 K): 0.0397 | solubility (mole fraction) (in acetone, 307.94 K): 0.0498 | solubility (mole fraction) (in acetone, 313.74 K): 0.0673 | solubility (mole fraction) (in acetone, 318.56 K): 0.0871 | solubility (mole fraction) (in acetone, 323.57 K): 0.114 | solubility (mole fraction) (in ethanol, 283.12 K): 0.00171 | solubility (mole fraction) (in ethanol, 288.27 K): 0.0021 | solubility (mole fraction) (in ethanol, 293.38 K): 0.00252 | solubility (mole fraction) (in ethanol, 298.04 K): 0.00303 | solubility (mole fraction) (in ethanol, 302.93 K): 0.00376 | solubility (mole fraction) (in ethanol, 308.32 K): 0.0049 | solubility (mole fraction) (in ethanol, 314.17 K): 0.00667 | solubility (mole fraction) (in ethanol, 318.74 K): 0.00852 | solubility (mole fraction) (in ethanol, 323.26 K): 0.0108 | solubility (mole fraction) (in isopropanol, 278.12 K): 0.000955 | solubility (mole fraction) (in isopropanol, 283.38 K): 0.00128 | solubility (mole fraction) (in isopropanol, 288.33 K): 0.00163 | solubility (mole fraction) (in isopropanol, 293.07 K): 0.00209 | solubility (mole fraction) (in isopropanol, 298.33 K): 0.00278 | solubility (mole fraction) (in isopropanol, 303.36 K): 0.0037 | solubility (mole fraction) (in isopropanol, 308.46 K): 0.00496 | solubility (mole fraction) (in isopropanol, 313.26 K): 0.00649 | solubility (mole fraction) (in isopropanol, 318.54 K): 0.00864 | solubility (mole fraction) (in methanol, 277.93 K): 0.00087 | solubility (mole fraction) (in methanol, 283.06 K): 0.00107 | solubility (mole fraction) (in methanol, 288.28 K): 0.00141 | solubility (mole fraction) (in methanol, 293.42 K): 0.00186 | solubility (mole fraction) (in methanol, 298.04 K): 0.00235 | solubility (mole fraction) (in methanol, 302.77 K): 0.00293 | solubility (mole fraction) (in methanol, 308.56 K): 0.00372 | solubility (mole fraction) (in methanol, 313.53 K): 0.00446 | solubility (mole fraction) (in methanol, 319.04 K): 0.00533 | solubility (mole fraction) (in toluene, 278.18 K): 0.0391 | solubility (mole fraction) (in toluene, 283.13 K): 0.0461 | solubility (mole fraction) (in toluene, 288.28 K): 0.0548 | solubility (mole fraction) (in toluene, 293.22 K): 0.0649 | solubility (mole fraction) (in toluene, 298.12 K): 0.0771 | solubility (mole fraction) (in toluene, 303.14 K): 0.0924 | solubility (mole fraction) (in toluene, 308.46 K): 0.112 | solubility (mole fraction) (in toluene, 313.43 K): 0.135 | solubility (mole fraction) (in toluene, 318.34 K): 0.161

Source: BigSolDB 2.1
